Source: PubChem BioAssay (NCI)
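Each compound was tested at five concentrations against cells in 96-well plates for 48 hours. GI50 is the concentration that inhibits growth by half. TGI is the concentration that stops growth completely.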

Test system: MDA-MB-468 breast
Assay: inhibition of tumour cell growth, NCI panel, 48 h

| Compound | GI50 | TGI |
| --- | --- | --- |
| COc1cc(NC(=O)c2cc(O)c(CC=C(C)C)c(O)c2)cc2c1O[C@]1(C)CC[C@@H](O)C(C)(C)[C@H]1C2 | 3420 nM | 19800 nM |
| CCN(CC)c1ccc(C(=N)c2ccc(N(CC)CC)cc2)cc1 | 312 nM | 1430 nM |
| O=C(Nc1ccc(Cl)cc1)c1cc(-c2ccc(F)cc2)c2sc(=O)[nH]c2n1 | 687 nM | 4970 nM |
| COC(=O)Nc1nc2ccc(Oc3ccc(NC(=O)Nc4ccccc4)cc3)cc2[nH]1 | 56.1 nM | 489 nM |
| Cc1cc(C)c(C(=O)CC(=O)c2cccnc2)c(C)c1 | 8680 nM | 49800 nM |
| CCS(=O)(=O)c1ccc(OC)c(Nc2ncc(-c3cccc(OC)c3)o2)c1 | 10500 nM | > 25000 nM |
| O=C(N/N=C/c1cccc(O)c1O)c1ccccc1 | 1290 nM | 11100 nM |
| CCS(=O)(=O)c1ccc(OC)c(Nc2ncc(-c3cccc(C(C)=O)c3)o2)c1 | 3460 nM | > 25000 nM |
| CCC#CC[C@H]1C/C=C2/C(=O)C=C[C@@H]2C/C=C\CCCC(=O)O1 | 928 nM | 5470 nM |
| COc1cc(C2=NN(C(C)=O)C(c3ccc(OC(C)=O)cc3OC(C)=O)O2)c(OC(C)=O)c2ccccc12 (stereo not drawn) | 1060 nM | 6580 nM |
| CC(C)c1ccc(C(=O)Nc2sc3c(c2C(N)=O)CCC(=O)C3)cc1 | 453 nM | 1810 nM |
| Nc1ncc(-c2cnn(CCO)c2)c2scc(-c3ccc(NC(=O)Nc4cccc(F)c4)cc3)c12 | 443 nM | 5660 nM |
| COc1cc[nH]c1/C=C1\C(=O)Nc2ccccc21 | 1110 nM | > 25000 nM |
| COc1ccc(OC)c(/C=C/C(=O)N/N=C/c2ccc(Cl)cc2)c1 | 76.8 nM | 363 nM |
